In article PMC5594493, “Antiproliferative factor (APF) binds specifically to sites within the cytoskeleton-associated protein 4 (CKAP4) extracellular domain” (BMC Biochemistry, 2017):
Several values for one entry are separate records, joined by “and”; a condition that tells them apart may be missing. Equal entries are not always repeated. Entries after “also recorded” stand apart in the source; their conditions may differ.

What was measured:
CKAP4_106–602 = test: SPR, CKAP4_106–602 as immobilized ligand; assay type: binding; conditions: CKAP4_106–602 immobilized on NTA chip
Experimental: (§1) All SPR experiments were performed on a Biacore X-100 instrument (GE Healthcare) with the chip surface at 25 °C using PBS containing 0.01% Tween-20 as running buffer. CKAP4 recombinant proteins were immobilized individually either by Ni^2+/nitrilotriacetic acid (NTA) chelation on Sensor Chip NTA or by amine-coupling on Sensor Chip CM5, on the Fc2 channel. For amine-coupling, the sensor surface on both flow cells was activated for 7 min with a 1:1 mixture of 0.1 M EDC (1-ethyl-3-(3-dimethylaminopropyl) carbodiimide hydrochloride) and 0.1 M NHS (N-hydroxysuccinimide) at a flow rate of 5 μl/min. Immobilization of CKAP4 proteins (on Fc2) was performed in 10 mM sodium acetate buffer, at either pH 4.5, 5.0, or 5.5 based on preliminary pH scouting runs, for optimal binding. Unreacted NHS groups were quenched with a 7 min injection of 1 M ethanolamine pH 8.5. The Fc1 channel was treated similarly but without CKAP4 and served as a reference. Upon stabilization of the baseline signal, multi-cycle kinetics assays were performed with injections of as-APF as analyte at various concentrations (2.5–40 μM) in running buffer at 30 μl/min for 2 min, immediately followed by a 3 min dissociation phase. […] The data were analyzed using Biacore Evaluation software V2.0. […]

CKAP4_127–602 = molecular target: T1, CKAP4_127–602 (Homo sapiens, UniProt Q07065); test: SPR, CKAP4_127–602 as immobilized ligand; assay type: binding; conditions: CKAP4_127–602 immobilized on NTA chip
T1 construct: encompassing only the extracellular domain (Aa 127–602) tagged at the C-terminus with a His-tag (CKAP4_127–602); His-tag (C); made in house; host or cells: E. coli BL21(DE3)pLysS
T1 sequence (Q07065 127-602): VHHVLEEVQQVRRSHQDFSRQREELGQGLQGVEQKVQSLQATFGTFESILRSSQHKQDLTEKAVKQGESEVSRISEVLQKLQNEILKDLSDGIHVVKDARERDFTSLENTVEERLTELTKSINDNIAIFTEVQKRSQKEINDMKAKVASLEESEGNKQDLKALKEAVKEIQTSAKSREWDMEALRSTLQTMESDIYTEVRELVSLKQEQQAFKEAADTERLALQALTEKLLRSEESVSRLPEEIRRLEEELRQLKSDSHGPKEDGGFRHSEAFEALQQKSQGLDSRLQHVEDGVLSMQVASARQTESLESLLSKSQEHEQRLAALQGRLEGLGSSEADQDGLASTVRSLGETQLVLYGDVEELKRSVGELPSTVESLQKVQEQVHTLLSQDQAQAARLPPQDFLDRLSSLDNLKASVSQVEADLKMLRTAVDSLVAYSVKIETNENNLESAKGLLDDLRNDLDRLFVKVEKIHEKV
Experimental: as §1

[1] = test system: T24 bladder carcinoma cells; test: XTT cell proliferation assay, T24; assay type: cell-based; conditions: 20 nM, 96 h, serum-free, relative to vehicle/control, at least four independent times, P < 0.0001 vs control, as-APF vs APF P = 0.0103 (unpaired t-test, Welch's correction)
Experimental: T24 bladder carcinoma cells (ATCC #HTB-4; Manassas, VA) were maintained in HyClone-formulated McCoy’s 5A modified media (Catalog #SH30525.01) supplemented with 10% fetal bovine serum (FBS) (Atlanta Biologicals, Flowery Branch, GA), 100 U/ml penicillin, and 100 μg/ml streptomycin (Invitrogen, Carlsbad, CA). Cell proliferation was measured using the XTT Cell Proliferation Assay Kit (ATCC). T24 cells were seeded at 1 × 10^3–4 × 10^3 per well in a 48-well plate in 300 μl/well McCoy’s supplemented medium. Cells were serum-starved for 24 h and then treated with either 20 nM APF, 20 nM as-APF, or 25 μM H2O2 (antiproliferative control) diluted in serum-free McCoy’s medium. Cells were incubated at 37 °C in a 5% CO2 atmosphere for an additional 96 h, after which 150 μl of activated–XTT solution was added to each well followed by an additional 3 h incubation. Absorbance was then measured at 475 nm and 660 nm using an M5 microplate reader (Molecular Devices, Sunnyvale, CA), and the specific absorbance was calculated. P values were assigned using unpaired t-test with Welch’s correction. The assay was repeated four independent times.

## Neu5Acα2 − 3Galβ1 − 3GalNAcα-O-TVPAAVVVA [APF]
CKAP4_106–602
  binding: did not bind robustly; also recorded: did not generate sufficient binding
CKAP4_127–602
  binding: did not bind robustly
[1]
  reduction of T24 cell proliferation: 47% and 47.08 ± 12.88%
